Reference: ChEMBL document CHEMBL1147337, “A new bastadin from the sponge Psammaplysilla purpurea” (J Nat Prod, 1993)
In brackets after ≈: the same amount, converted by molar mass.

How the values were obtained:
[1] = target: DNA topoisomerase 2-alpha (Homo sapiens, UniProt P11388); test: Inhibition of topoisomerase 2
HT-29 = test: Cytotoxicity against human HT-29 cells; type: functional, cell-based
A549 = test: Cytotoxicity against human A549 cells; type: functional, cell-based
Dihydrofolate reductase = target: T1, Dihydrofolate reductase (Homo sapiens, UniProt P00374); test: Inhibition of DHFR
T1 sequence (P00374 whole entry): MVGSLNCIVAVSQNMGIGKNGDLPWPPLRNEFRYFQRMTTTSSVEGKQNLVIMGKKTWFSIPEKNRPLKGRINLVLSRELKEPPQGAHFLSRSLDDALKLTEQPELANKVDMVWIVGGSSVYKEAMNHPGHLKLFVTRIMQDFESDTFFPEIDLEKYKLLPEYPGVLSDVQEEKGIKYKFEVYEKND

P388 = test: Cytotoxicity against mouse P388 cells; type: functional, cell-based
[2] = Cytotoxicity against african green monkey CV1 cells; type: cell-based; conditions: Chlorocebus aethiops, CV-1

Sequence of DNA topoisomerase 2-alpha (P11388 whole entry): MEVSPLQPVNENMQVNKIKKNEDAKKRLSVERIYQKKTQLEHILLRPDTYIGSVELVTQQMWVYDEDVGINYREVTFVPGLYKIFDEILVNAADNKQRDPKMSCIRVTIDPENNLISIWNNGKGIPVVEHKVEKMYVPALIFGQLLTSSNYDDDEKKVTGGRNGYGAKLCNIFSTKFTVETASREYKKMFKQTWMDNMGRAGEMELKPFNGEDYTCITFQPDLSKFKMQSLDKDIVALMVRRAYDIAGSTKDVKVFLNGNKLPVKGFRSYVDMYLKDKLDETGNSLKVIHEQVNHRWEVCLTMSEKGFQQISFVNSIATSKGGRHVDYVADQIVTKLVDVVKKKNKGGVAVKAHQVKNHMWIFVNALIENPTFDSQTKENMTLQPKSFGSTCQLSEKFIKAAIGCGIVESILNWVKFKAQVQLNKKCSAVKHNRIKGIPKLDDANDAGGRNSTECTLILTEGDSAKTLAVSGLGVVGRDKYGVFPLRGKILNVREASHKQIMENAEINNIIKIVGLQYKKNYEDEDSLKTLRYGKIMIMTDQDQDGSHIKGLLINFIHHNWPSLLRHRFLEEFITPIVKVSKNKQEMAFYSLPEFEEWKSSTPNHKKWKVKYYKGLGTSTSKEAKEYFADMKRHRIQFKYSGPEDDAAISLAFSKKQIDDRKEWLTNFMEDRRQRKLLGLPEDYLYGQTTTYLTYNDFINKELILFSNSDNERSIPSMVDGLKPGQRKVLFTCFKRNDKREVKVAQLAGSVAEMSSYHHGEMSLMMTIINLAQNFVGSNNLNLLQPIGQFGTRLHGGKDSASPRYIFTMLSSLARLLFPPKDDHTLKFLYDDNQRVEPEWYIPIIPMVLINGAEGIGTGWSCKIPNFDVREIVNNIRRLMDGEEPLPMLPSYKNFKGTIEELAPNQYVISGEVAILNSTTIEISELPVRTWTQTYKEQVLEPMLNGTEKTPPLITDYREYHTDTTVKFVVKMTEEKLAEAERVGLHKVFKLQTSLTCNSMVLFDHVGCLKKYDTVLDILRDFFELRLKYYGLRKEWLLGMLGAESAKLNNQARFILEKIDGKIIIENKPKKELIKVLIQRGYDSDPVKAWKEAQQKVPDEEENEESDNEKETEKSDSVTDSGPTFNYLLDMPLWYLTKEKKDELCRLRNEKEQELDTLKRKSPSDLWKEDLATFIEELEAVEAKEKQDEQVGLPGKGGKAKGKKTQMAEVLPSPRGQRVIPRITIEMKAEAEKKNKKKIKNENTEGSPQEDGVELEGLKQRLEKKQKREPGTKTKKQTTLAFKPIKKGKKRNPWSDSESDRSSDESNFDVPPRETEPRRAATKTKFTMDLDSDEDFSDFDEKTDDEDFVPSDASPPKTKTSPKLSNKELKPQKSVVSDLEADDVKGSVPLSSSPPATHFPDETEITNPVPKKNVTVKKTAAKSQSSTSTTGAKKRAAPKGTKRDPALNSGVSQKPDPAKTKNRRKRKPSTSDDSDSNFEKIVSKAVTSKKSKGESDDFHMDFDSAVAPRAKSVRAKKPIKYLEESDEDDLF

- IC50 [1]: 1970 nM
- IC50 (Dihydrofolate reductase): 2460 nM
SMILES: O=C1N/C=C/c2cc(Br)c(c(Br)c2)Oc2cc(cc(Br)c2O)CCNC(=O)/C(=N/O)Cc2ccc(c(Br)c2)Oc2cc(cc(Br)c2O)C/C1=N\O [BASTADIN 14]
- IC50 (HT-29): 2 µg/mL (≈ 1.97 µM)
- IC50 (A549): 2 µg/mL (≈ 1.97 µM)
- IC50 (P388): 2 µg/mL (≈ 1.97 µM)
- IC50 [2]: 2.5 µg/mL (≈ 2.46 µM)
